Literature values as cited in US20110195912A1, “Oligomer-Protease Inhibitor Conjugates” (Nektar Therapeutics, priority 2008, published 2011).
Read-outs that look alike come from different tables or passages of the source.

Tests used:
[1] = test system: HCV genotype 1; details: 100-400 mg twice daily; patients with HCV genotype 1 that had failed pegIFN-α 2a therapy
[2] = test system: HCV genotype 1; details: 200 or 400 mg thrice daily, 14 days; non-responder patients with HCV genotype 1
[3] = test system: HCV; details: monotherapy, twice daily doses for 14 days
[4] = rat; twice daily oral dosing for seven days
[5] = monkey; twice daily oral dosing for seven days

liver trough concentrations following the last dose [4] | liver trough concentrations following the last dose [5] | Structure (SMILES) | antiviral activity as a monotherapy [1] | efficacy in combination with pegIFN-α2a [2] | viral RNA levels [3]
 |  | CC(C)(C)NC(=O)N[C@H](C(=O)N1CC2[C@@H]([C@H]1C(=O)NC(CC1CCC1)C(=O)C(N)=O)C2(C)C)C(C)(C)C (some centres unmarked) [Boceprevir] | demonstrated antiviral activity | efficacious | 
in excess of in vitro EC90 values | in excess of in vitro EC90 values | CC(C)(C)OC(=O)N[C@H]1CCCCC/C=C\[C@@H]2C[C@@]2(C(=O)NS(=O)(=O)C2CC2)NC(=O)[C@@H]2C[C@@H](OC(=O)N3Cc4cccc(F)c4C3)CN2C1=O [ITMN-191] |  |  | rapid reduction in viral RNA levels
